# Tests used:
# [1] = system: C57/BL6 WT mice subjected to TAC pressure overload; assay: Transthoracic echocardiography in conscious TAC mice; assay type: in vivo, mouse; details: WT mice, TAC 3 weeks, oral co-treatment 1 mg/g food; mean ± sem
# Excerpt: Male NOS3 null mice (NOS3^−/−) and C57/BL6 WT controls (8-11 weeks, Jackson Labs, Bar Harbor, Me., USA) were used. Pressure overload was produced by transverse aorta constriction (TAC). Briefly, The aortic arch was isolated by entering the extrapleural space between the second and third rib, and afterwards the transverse aorta was isolated between the right and left carotid arteries. A 7-0 prolene suture ligature was tied around the transverse aorta against a 27-gauge needle to produce a 65-70% constriction after the removal of the needle. After closing the chest, animals were extubated, and a subcutaneous injection of morphine sulphate 0.2 mg, was administered before they returned to their cages. Animal's ventilatory and circulatory status was checked every 30 minutes during the first 2 hours. Sham-operated mice underwent the same operation except for aortic constriction. […] Animals were randomized to receive placebo or BH4 (120 mg/kg/d) for the next 5 weeks. At the end of the study, i.e. at 9 weeks, animal were sacrificed to receive tissue or underwent in vivo PV-loop analysis. […] Control mice were subject to sham operations, and animals were studied 3-9 weeks following surgery. An additional group of wild-type animals were subjected to TAC for 3 weeks while co-treated with oral tetrahydrobiopterin (BH4) (Sigma-Aldrich) (1 mg/g food) mixed in their rodent chow, providing 5 mg/day based on 4-6 g daily diet^8.
# Two different BH4 treatment protocols are used. For experiments related to FIGS. 1-7, where prevention of cardiac indications is described BH4 is provided orally as a treatment starting 2 days after TAC surgery (once mice are again eating oral diet). For those figures related to treatment of established cardiac indications, FIGS. 8-23, BH4 is provided orally but this is delayed for 4 weeks to establish substantial cardiac hypertrophy, remodeling, and NOS-uncoupling. Then the treatment is provided for the remaining 5 week period.
# For folate studies, C57/BL6 WT were treated with folate (10 mg/kg/day) or with placebo for a 9 week period during which time the hearts were exposed to TAC.
# In vivo cardiac morphology was assessed by transthoracic echocardiography (Acuson Sequoia C256, 13 MHz transducer, Siemens) in conscious mice. M-mode left ventricular (LV) end-systolic and end-diastolic dimensions were averaged from 3-5 beats. Left ventricular ejection fraction (LVEF) and percent fractional shortening (% FS) were calculated as: LVEF=[(LVEDD)^3-(LVESD)^3]/(LVEDD)^3×100; % FS=(LVEDD−LVESD)/LVEDD×100. Wall thickness of lateral freewall and intraventricular septum were averaged. Studies and analysis were performed blinded to heart condition.
# NOS3 = target: T1, NOS3 (Mus musculus, UniProt P70313); assay: NOS3 dimer/monomer by low-temperature SDS-PAGE in TAC hearts; assay type: in vivo; details: WT mice, TAC 3 weeks, oral co-treatment
# T1 construct: from tissue; host or cells: mouse heart (myocardium) after sham or TAC surgery
# T1 sequence (P70313 2-1202 limits assumed): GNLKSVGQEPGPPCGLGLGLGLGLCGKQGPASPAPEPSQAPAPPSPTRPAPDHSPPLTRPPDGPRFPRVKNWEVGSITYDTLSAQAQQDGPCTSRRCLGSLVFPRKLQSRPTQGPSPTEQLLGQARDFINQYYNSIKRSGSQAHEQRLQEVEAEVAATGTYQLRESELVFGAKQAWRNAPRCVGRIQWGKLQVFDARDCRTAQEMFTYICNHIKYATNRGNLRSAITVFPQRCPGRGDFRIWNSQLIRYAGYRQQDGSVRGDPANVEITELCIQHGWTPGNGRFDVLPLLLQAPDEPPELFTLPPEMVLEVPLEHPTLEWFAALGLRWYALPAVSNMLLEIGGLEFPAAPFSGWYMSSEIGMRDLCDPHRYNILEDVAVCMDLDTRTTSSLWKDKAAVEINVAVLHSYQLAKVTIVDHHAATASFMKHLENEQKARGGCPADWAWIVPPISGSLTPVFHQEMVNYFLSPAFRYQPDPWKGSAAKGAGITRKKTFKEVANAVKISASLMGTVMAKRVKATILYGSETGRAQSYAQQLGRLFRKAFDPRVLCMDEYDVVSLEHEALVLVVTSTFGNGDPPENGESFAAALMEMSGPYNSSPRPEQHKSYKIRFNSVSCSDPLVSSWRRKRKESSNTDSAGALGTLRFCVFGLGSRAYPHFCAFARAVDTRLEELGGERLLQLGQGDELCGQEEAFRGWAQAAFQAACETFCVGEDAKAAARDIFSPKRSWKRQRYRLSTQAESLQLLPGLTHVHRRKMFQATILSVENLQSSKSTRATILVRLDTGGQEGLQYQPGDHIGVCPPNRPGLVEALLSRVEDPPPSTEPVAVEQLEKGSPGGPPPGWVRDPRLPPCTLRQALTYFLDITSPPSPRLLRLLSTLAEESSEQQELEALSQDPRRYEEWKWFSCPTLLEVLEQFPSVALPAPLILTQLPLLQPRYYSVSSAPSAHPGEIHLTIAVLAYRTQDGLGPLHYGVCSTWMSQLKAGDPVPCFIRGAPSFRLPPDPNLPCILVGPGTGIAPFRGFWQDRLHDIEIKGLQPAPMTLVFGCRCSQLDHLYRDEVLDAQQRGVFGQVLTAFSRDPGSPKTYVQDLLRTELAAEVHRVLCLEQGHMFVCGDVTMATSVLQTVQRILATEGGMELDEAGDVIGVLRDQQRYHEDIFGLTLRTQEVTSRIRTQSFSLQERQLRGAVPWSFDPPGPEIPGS
# Procedure: (§1) SDS-resistant NOS3 dimers and monomers were assayed using low-temperature SDS PAGE under reducing or non-reducing conditions, as described previously^7. NOS3 was immunoprecipitated as described^16 and the resulting samples added to fivefold Laemmli buffer (0.32 mol/l Tris-HCl, pH 6.8, 0.5 mol/l glycine, 10% SDS, 50% glycerol, and 0.03% bromophenol blue) in non-reducing gel (no 2-mercaptoethanol) to identify dimer dissociation due to reduced disulfide bridges. To provide fully denatured control lanes, samples were boiled for 15 minutes prior to loading. Electrophoresis was performed using Tris glycine 6% gels (Invitrogen Corp.), and gels and buffers maintained in an ice bath at 4° C. and stained (SimplyBlue, Invitrogen Corp.). Calcium dependent and independent NOS activity was determined from myocardial homogenates by [3H] L-arginine to [3H] citrulline conversion (Sigma-Aldrich) as described^16. An alternative approach involved more direct Western blot analysis without requiring initial NOS IP. Cold SDS-Page Western blot analysis was performed using a self-made […] SDS-Tris gel. After overnight running on ice, the gel was transferred for 3 h to nitrocellulose membrane. […] Bound antibodies were detected with horseradish peroxidase-conjugated anti-mouse IgG and visualize with an enhanced chemiluminescence detection system.
# NOS = assay: Calcium dependent NOS activity, arginine to citrulline conversion, in myocardial homogenates of TAC hearts; assay type: in vivo, mouse; details: WT mice, TAC 3 weeks, oral co-treatment
# Procedure: as §1
smiles,measurement,setting,value
"Nc1nc2c(c(=O)[nH]1)NC(C(O)C(O)CO)CN2 (stereo not drawn) [H4N, tetrahydroneopterin]",Fractional Shortening,[1],33.8 ± 5.3%
same,LV diameter Diastole,[1],3.94 ± 0.19 mm
same,LV diameter Systole,[1],2.70 ± 0.31 mm
same,Wall thickness,[1],0.98 ± 0.03 mm
same,NOS3 dimerization,NOS3,unaltered
same,Ca^2+-dependent NOS activity,NOS,unaltered
